Measured values taken from patent US11230526B1, “Cylcoalkenyl derivatives useful as agonists of the GPR120 and/or GPR40 receptors” (Janssen Pharmaceutica NV, priority 2018, dated 2022).

Assays:
Human GPR120 short form = molecular target: T1, Human GPR120 short form (Homo sapiens, UniProt Q5NUL3); experiment: Human GPR120 calcium flux assay, Procedure Calcium A (2500 cells/well); type: cell-based
T1 construct: expressed in transfected cells
T1 sequence (Q5NUL3 1-361): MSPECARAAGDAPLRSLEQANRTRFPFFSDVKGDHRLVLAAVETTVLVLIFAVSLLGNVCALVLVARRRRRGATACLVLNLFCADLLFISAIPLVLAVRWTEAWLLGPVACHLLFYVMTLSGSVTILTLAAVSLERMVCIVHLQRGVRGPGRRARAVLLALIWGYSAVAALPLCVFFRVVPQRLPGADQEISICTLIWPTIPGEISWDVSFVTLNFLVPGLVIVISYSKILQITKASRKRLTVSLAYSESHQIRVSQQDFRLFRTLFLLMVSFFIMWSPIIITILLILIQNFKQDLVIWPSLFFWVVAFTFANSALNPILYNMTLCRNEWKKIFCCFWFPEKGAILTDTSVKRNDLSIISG
How it was run: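 HEK293 cells stably expressing human GPR120 short isoform (NM_001195755.1), 2500 cells/well, serum-starved 1 h at 37 °C and loaded with Fluo-4 NW plus probenecid. FLIPR fluorescence read for 300 s after compound addition; response = Fmax−Fmin. EC50 from four-parameter concentration–response fit.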

human GPR40 = molecular target: T2, human GPR40 (Homo sapiens, UniProt O14842); experiment: GPR40 calcium flux assay, human GPR40; type: cell-based; settings: HEK293 cells stably expressing GPR40; table does not say human or rat
T2 construct: expressed in transfected cells
How it was run: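 Cells preincubated 1 h at 37° C. in HBSS, 20 mM HEPES, 0.1% BSA, then Fluo 8 calcium dye 30 min at 37° C. and 15 min at room temperature.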

T2 sequence (O14842 whole entry): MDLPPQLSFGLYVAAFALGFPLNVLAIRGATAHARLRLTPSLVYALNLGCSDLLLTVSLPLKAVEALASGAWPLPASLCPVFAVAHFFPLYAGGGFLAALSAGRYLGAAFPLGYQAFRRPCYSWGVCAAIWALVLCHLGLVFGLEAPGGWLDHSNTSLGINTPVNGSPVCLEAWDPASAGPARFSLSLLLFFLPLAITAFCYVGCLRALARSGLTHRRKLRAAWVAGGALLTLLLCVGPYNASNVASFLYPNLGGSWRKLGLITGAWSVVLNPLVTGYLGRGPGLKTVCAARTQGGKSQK

Cc1ccc(C2=C(COc3c(F)cc(CCC(=O)O)cc3F)CCC2)cc1[N+](=O)[O-] [Compound 109, 3-(3,5-difluoro-4-((2-(4-methyl-3-nitrophenyl)cyclopent-1-en-1-yl)methoxy)phenyl)Propanoic Acid]
EC50 (Human GPR120 short form): 959 nM | EC50 (human GPR40): > 5 µM

Cc1c(CCC(=O)O)ccc(OCC2=C(c3ccccc3Br)CCC2)c1C [Compound 111, 3-[4-[[2-(2-bromophenyl)cyclopenten-1-yl]methoxy]-2,3-dimethyl-phenyl]Propanoic Acid]
EC50 (Human GPR120 short form): 777 nM | EC50 (human GPR40): > 5 µM

O=C(O)CCc1c(F)c(F)c(OCC2=C(c3ccc(Cl)cc3)CCC2)c(F)c1F [Compound 122, 3-[4-[[2-(4-chlorophenyl)cyclopenten-1-yl]methoxy]-2,3,5,6-tetrafluoro-phenyl]Propanoic Acid]
EC50 (Human GPR120 short form): 453 nM | EC50 (human GPR40): > 5 µM

Cc1c(CCC(=O)O)ccc(OCC2=C(c3ccccc3F)CCC2)c1C [Compound 124, 3-[4-[[2-(2-fluorophenyl)cyclopenten-1-yl]methoxy]-2,3-dimethyl-phenyl]Propanoic Acid]
EC50 (Human GPR120 short form): 308 nM | EC50 (human GPR40): > 5 µM

Cc1cc(OCC2=C(c3ccc(Cl)cc3)CCC2)ccc1CCC(=O)O [Compound 131, 3-[4-[[2-(4-chlorophenyl)cyclopenten-1-yl]methoxy]-2-methyl-phenyl]Propanoic Acid]
EC50 (Human GPR120 short form): 533 nM | EC50 (human GPR40): 1.99 µM

Cc1ccccc1C1=C(COc2ccc(CCC(=O)O)c(C)c2C)CCC1 [Compound 132, 3-[2,3-dimethyl-4-[[2-(o-tolyl)cyclopenten-1-yl]methoxy]phenyl]Propanoic Acid]
EC50 (Human GPR120 short form): 1090 nM | EC50 (human GPR40): > 5 µM

Cc1c(CCC(=O)O)ccc(OCC2=C(c3ccc(Cl)cc3Cl)CCC2)c1C [Compound 133, 3-[4-[[2-(2,4-dichlorophenyl)cyclopenten-1-yl]methoxy]-2,3-dimethyl-phenyl]Propanoic Acid]
EC50 (Human GPR120 short form): 682 nM | EC50 (human GPR40): > 5 µM

Cc1ccc(C2=C(COc3ccc(CCC(=O)O)c(C)c3C)CCC2)cc1N [Compound 134, 3-(4-((2-(3-amino-4-methylphenyl)cyclopent-1-en-1-yl)methoxy)-2,3-dimethylphenyl)Propanoic Acid]
EC50 (Human GPR120 short form): 2000 nM | EC50 (human GPR40): > 5 µM

COc1cccc(C2=C(COc3ccc(CCC(=O)O)c(C)c3C)CCC2)c1 [Compound 141, 3-[4-[[2-(3-methoxyphenyl)cyclopenten-1-yl]methoxy]-2,3-dimethyl-phenyl]Propanoic Acid]
EC50 (Human GPR120 short form): 1060 nM | EC50 (human GPR40): > 5 µM

Cc1c(CCC(=O)O)ccc(OCC2=C(c3ccccn3)CCC2)c1C [Compound 147, 3-[2,3-dimethyl-4-[[2-(2-pyridyl)cyclopenten-1-yl]methoxy]phenyl]Propanoic Acid]
EC50 (Human GPR120 short form): 1010 nM | EC50 (human GPR40): > 5 µM

O=C(O)CCc1ccc(OCC2=C(c3ccc(Cl)cc3)CCC2)c(F)c1 [Compound 149, 3-[4-[[2-(4-chlorophenyl)cyclopenten-1-yl]methoxy]-3-fluoro-phenyl]Propanoic Acid]
EC50 (Human GPR120 short form): 128 nM | EC50 (human GPR40): > 10 µM

O=C(O)CCc1ccc(OCC2=C(c3ccc(Cl)cc3)CCC2)cc1 [Compound 153, 3-[4-[[2-(4-chlorophenyl)cyclopenten-1-yl]methoxy]phenyl]Propanoic Acid]
EC50 (Human GPR120 short form): 319 nM | EC50 (human GPR40): 2.95 µM

Cc1c(CCC(=O)O)ccc(OCC2=C(c3ccc(Cl)nc3)CCC2)c1C [Compound 158, 3-(4-((2-(6-chloropyridin-3-yl)cyclopent-1-en-1-yl)methoxy)-2,3-dimethylphenyl)Propanoic Acid]
EC50 (Human GPR120 short form): 234 nM | EC50 (human GPR40): > 5 µM

Cc1cc(CCC(=O)O)ccc1OCC1=C(c2ccc(Cl)c(F)c2)CCC1 [Compound 159, 3-(4-((2-(4-chloro-3-fluorophenyl)cyclopent-1-en-1-yl)methoxy)-3-methylphenyl)Propanoic Acid]
EC50 (Human GPR120 short form): 44 nM | EC50 (human GPR40): > 5 µM

Cc1cc(CCC(=O)O)ccc1OCC1=C(c2ccc(Cl)cc2)CCC(F)(F)C1 [Compound 467, 3-(4-((4′-chloro-4,4-difluoro-3,4,5,6-tetrahydro-[1,1′-biphenyl]-2-yl)methoxy)-3-methylphenyl)Propanoic Acid]
EC50 (Human GPR120 short form): 199 nM | EC50 (human GPR40): > 5 µM

Cc1c(CCC(=O)O)ccc(OCC2=C(c3ccc(Cl)cc3)CCC(F)(F)C2)c1C [Compound 468, 3-[4-[[2-(4-chlorophenyl)-5,5-difluoro-cyclohexen-1-yl]methoxy]-2,3-dimethyl-phenyl]Propanoic Acid]
EC50 (Human GPR120 short form): 261 nM | EC50 (human GPR40): > 5 µM

Cc1c(CCC(=O)O)ccc(OCC2=C(c3ccccc3)CCCC2)c1C [Compound 472, 3-[2,3-dimethyl-4-[(2-phenylcyclohexen-1-yl)methoxy]phenyl]Propanoic Acid]
EC50 (Human GPR120 short form): 406 nM | EC50 (human GPR40): > 5 µM

Cc1c(CCC(=O)O)ccc(OCC2=C(c3ccc(Cl)cc3)CCCC2)c1C [Compound 474, 3-[4-[[2-(4-chlorophenyl)cyclohexen-1-yl]methoxy]-2,3-dimethyl-phenyl]Propanoic Acid]
EC50 (Human GPR120 short form): 428 nM | EC50 (human GPR40): > 5 µM

O=C(O)CCc1c(F)c(F)c(OCC2=C(c3ccc(Cl)cc3)CCCC2)c(F)c1F [Compound 479, 3-[4-[[2-(4-chlorophenyl)cyclohexen-1-yl]methoxy]-2,3,5,6-tetrafluoro-phenyl]Propanoic Acid]
EC50 (Human GPR120 short form): 958 nM | EC50 (human GPR40): > 5 µM

Cc1cc(CCC(=O)O)ccc1OCC1=C(c2ccc(Cl)cc2)CCCC1 [Compound 483, 3-[4-[[2-(4-chlorophenyl)cyclohexen-1-yl]methoxy]-3-methyl-phenyl]Propanoic Acid]
EC50 (Human GPR120 short form): 255 nM | EC50 (human GPR40): 3.53 µM

Cc1ccc(C2=C(COc3c(F)cc(CCC(=O)O)cc3F)CCCC2)cc1F [Compound 493, 3-[3,5-difluoro-4-[[2-(3-fluoro-4-methyl-phenyl)cyclohexen-1-yl]methoxy]phenyl]Propanoic Acid]
EC50 (Human GPR120 short form): 123 nM | EC50 (human GPR40): > 5 µM

Cc1ccc(C2=C(COc3ccc(CCC(=O)O)c(F)c3F)CCCC2)cc1F [Compound 494, 3-[2,3-difluoro-4-[[2-(3-fluoro-4-methyl-phenyl)cyclohexen-1-yl]methoxy]phenyl]Propanoic Acid]
EC50 (Human GPR120 short form): 117 nM | EC50 (human GPR40): > 5 µM

Cc1ccc(C2=C(COc3ccc(CCC(=O)O)c(C)c3C)CCCC2)cc1F [Compound 496, 3-[4-[[2-(3-fluoro-4-methyl-phenyl)cyclohexen-1-yl]methoxy]-2,3-dimethyl-phenyl]Propanoic Acid]
EC50 (Human GPR120 short form): 297 nM | EC50 (human GPR40): > 5 µM

O=C(O)CCc1ccc(OCC2=C(c3ccc(Cl)cc3)CCC(F)(F)C2)c(F)c1F [Compound 503, 3-[4-[[2-(4-chlorophenyl)-5,5-difluoro-cyclohexen-1-yl]methoxy]-2,3-difluoro-phenyl]Propanoic Acid]
EC50 (Human GPR120 short form): 493 nM | EC50 (human GPR40): > 5 µM

Cc1c(CCC(=O)O)ccc(OCC2=C(c3cccc(Cl)c3)CCCC2)c1C [Compound 509, 3-[4-[[2-(3-chlorophenyl)cyclohexen-1-yl]methoxy]-2,3-dimethyl-phenyl]Propanoic Acid]
EC50 (Human GPR120 short form): 963 nM | EC50 (human GPR40): > 10 µM

O=C(O)CCc1cc(F)c(OCC2=C(c3ccc(Cl)cc3)CCCC2)c(F)c1 [Compound 510, 3-[4-[[2-(4-chlorophenyl)cyclohexen-1-yl]methoxy]-3,5-difluoro-phenyl]Propanoic Acid]
EC50 (Human GPR120 short form): 561 nM | EC50 (human GPR40): > 10 µM

O=C(O)CCc1ccc(OCC2=C(c3ccc(Cl)cc3)CCCC2)c(F)c1 [Compound 511, 3-[4-[[2-(4-chlorophenyl)cyclohexen-1-yl]methoxy]-3-fluoro-phenyl]Propanoic Acid]
EC50 (Human GPR120 short form): 572 nM | EC50 (human GPR40): > 10 µM

Cc1c(CCC(=O)O)ccc(OCC2=C(c3ccc(N(C)C)cc3)CCCC2)c1C [Compound 512, 3-[4-[[2-(4-dimethylaminophenyl)cyclohexen-1-yl]methoxy]-2,3-dimethyl-phenyl]Propanoic Acid]
EC50 (Human GPR120 short form): 808 nM | EC50 (human GPR40): > 5 µM

O=C(O)CCc1ccc(OCC2=C(c3ccc(Cl)cc3)CCCC2)c(F)c1F [Compound 513, 3-[4-[[2-(4-chlorophenyl)cyclohexen-1-yl]methoxy]-2,3-difluoro-phenyl]Propanoic Acid]
EC50 (Human GPR120 short form): 331 nM | EC50 (human GPR40): > 5 µM

O=C(O)CCc1ccc(OCC2=C(c3ccc(Cl)cc3)CCCC2)c2c1CCC2 [Compound 514, 3-[7-[[2-(4-chlorophenyl)cyclohexen-1-yl]methoxy]indan-4-yl]Propanoic Acid]
EC50 (Human GPR120 short form): 340 nM | EC50 (human GPR40): > 5 µM
